Measurements as given in ChEMBL document CHEMBL4371024, “Synthesis and characterization of pyridoxine, nicotine and nicotinamide salts of dithiophosphoric acids as antibacterial agents against resistant wound infection” (Bioorg Med Chem, 2019).
Converted amounts (≈) assume the structure as drawn. The source made the active and inactive calls. No cut-off for these calls is given here.

Tests used:
[1] = system: Pseudomonas aeruginosa; assay: Antibacterial activity against Pseudomonas aeruginosa ATCC 27853 after 24 hrs by broth dilution method; assay type: functional; settings: ATCC 27853, 24 h
[2] = system: Staphylococcus aureus; assay: Antibacterial activity against Staphylococcus aureus ATCC 29213 after 24 hrs by broth dilution method; assay type: functional; settings: ATCC 29213, 24 h
[3] = system: Staphylococcus epidermidis; assay: Antibacterial activity against Staphylococcus epidermidis after 24 hrs by broth dilution method; assay type: functional
[4] = system: Klebsiella pneumoniae; assay: Antibacterial activity against Klebsiella pneumoniae after 24 hrs by broth dilution method; assay type: functional
[5] = system: Staphylococcus aureus; assay: Inhibition of extracellular component secretion and matrix formation in Staphylococcus aureus assessed as inhibition of polysaccharide matrix formation at 1 uM by scanning electron microscopy; assay type: functional, organism-based
[6] = system: Pseudomonas aeruginosa; assay: Inhibition of extracellular component secretion and matrix formation in Pseudomonas aeruginosa assessed as induction of morphological changes at 1 uM by scanning electron microscopy; assay type: functional, organism-based
[7] = system: Staphylococcus aureus; assay: Inhibition of extracellular component secretion and matrix formation in Staphylococcus aureus assessed as induction of morphological changes at 1 uM by scanning electron microscopy; assay type: functional, organism-based
[8] = system: Pseudomonas aeruginosa; assay: Inhibition of extracellular component secretion and matrix formation in Pseudomonas aeruginosa assessed as inhibition of polysaccharide matrix formation at 1 uM by scanning electron microscopy; assay type: functional, organism-based
[9] = Aggregation property of the compound assessed as mean hydrodynamic diameter at 1 mM after 1 hr by dynamic light scattering method; assay type: physicochemical; settings: 1000 µM
[10] = system: Klebsiella pneumoniae; assay: Ratio of MBC to MIC against Klebsiella pneumoniae; assay type: functional
[11] = system: Erythrocyte; assay: Hemolytic activity in human erythrocytes at >100 uM; assay type: ADME, cell-based
[12] = system: Enterobacter cloacae; assay: Antibacterial activity against multidrug-resistant and sensitive Enterobacter cloacae after 24 hrs by broth dilution method; assay type: functional
[13] = system: Staphylococcus aureus; assay: Drug interaction with Staphylococcus aureus cellular surface assessed as decrease in zeta potential at 1 mM treated for 1 hr followed by washing and measured by dynamic light scattering method; assay type: functional
[14] = Aggregation property of the compound in DMEM culture medium at 1 mM after 1 hr by dynamic light scattering method; assay type: physicochemical; settings: 1000 µM
[15] = system: Pseudomonas aeruginosa; assay: Antibacterial activity against multidrug-sensitive Pseudomonas aeruginosa after 24 hrs by broth dilution method; assay type: functional
[16] = system: Staphylococcus aureus; assay: Ratio of MBC to MIC against Staphylococcus aureus ATCC 29213; assay type: functional
[17] = system: Pseudomonas aeruginosa; assay: Drug interaction with Pseudomonas aeruginosa cellular surface assessed as decrease in zeta potential at 1 mM treated for 1 hr followed by washing and measured by dynamic light scattering method; assay type: functional
[18] = system: Pseudomonas aeruginosa; assay: Antibacterial activity against ciprofloxacin, imipenem, meronem-resistant and cefepime, piperacillin-tazobactam-sensitive Pseudomonas aeruginosa after 24 hrs by broth dilution method; assay type: functional
[19] = system: Staphylococcus aureus; assay: Antibacterial activity against multidrug-resistant Staphylococcus aureus after 24 hrs by broth dilution method; assay type: functional
[20] = system: Pseudomonas aeruginosa; assay: Antibacterial activity against multidrug-resistant Pseudomonas aeruginosa after 24 hrs by broth dilution method; assay type: functional
[21] = system: Escherichia coli; assay: Antibacterial activity against multidrug-resistant and sensitive Escherichia coli after 24 hrs by broth dilution method; assay type: functional
[22] = Cytotoxicity against human HSF cells after 72 hrs by MTT assay; assay type: cell-based
[23] = system: Pseudomonas aeruginosa; assay: Bactericidal activity against Pseudomonas aeruginosa ATCC 27853 incubated for 24 hrs followed by replating on Mueller-Hinton agar and further incubated for 24 hrs; assay type: functional; settings: ATCC 27853, 24 h
[24] = system: Staphylococcus aureus; assay: Antibacterial activity against methicillin, cefoxytin, levfloxacin-resistant and erythromycin, clindamycin-senstitive Staphylococcus aureus after 24 hrs by broth dilution method; assay type: functional
[25] = Cytotoxicity against human HSF cells after 24 hrs by MTT assay; assay type: cell-based
[26] = system: Klebsiella pneumoniae; assay: Antibacterial activity against multidrug-sensitive Klebsiella pneumoniae after 24 hrs by broth dilution method; assay type: functional
[27] = system: Staphylococcus aureus; assay: Bactericidal activity against Staphylococcus aureus ATCC 29213 incubated for 24 hrs followed by replating on Mueller-Hinton agar and further incubated for 24 hrs; assay type: functional; settings: ATCC 29213, 24 h
[28] = system: Klebsiella pneumoniae; assay: Bactericidal activity against Klebsiella pneumoniae incubated for 24 hrs followed by replating on Mueller-Hinton agar and further incubated for 24 hrs; assay type: functional
[29] = system: Pseudomonas aeruginosa; assay: Ratio of MBC to MIC against Pseudomonas aeruginosa ATCC 27853; assay type: functional
[30] = system: Pseudomonas aeruginosa; assay: Antibacterial activity against ciprofloxacin-resistant and multidrug-sensitive Pseudomonas aeruginosa after 24 hrs by broth dilution method; assay type: functional
[31] = system: Staphylococcus aureus; assay: Antibacterial activity against methicillin, cefoxytin-resistant and levofloxacin, erythromycin, clindamycin-senstitive Staphylococcus aureus after 24 hrs by broth dilution method; assay type: functional
[32] = system: Staphylococcus aureus; assay: Inhibition of extracellular component secretion and matrix formation in Staphylococcus aureus assessed as uncovering of bacterial cells at 1 uM by scanning electron microscopy; assay type: functional, organism-based
[33] = system: Pseudomonas aeruginosa; assay: Inhibition of extracellular component secretion and matrix formation in Pseudomonas aeruginosa assessed as induction of bacterial aggregation at 1 uM by scanning electron microscopy; assay type: functional, organism-based
[34] = system: Pseudomonas aeruginosa; assay: Inhibition of extracellular component secretion and matrix formation in Pseudomonas aeruginosa assessed as uncovering bacterial cells at 1 uM by scanning electron microscopy; assay type: functional, organism-based
[35] = system: Staphylococcus aureus; assay: Inhibition of extracellular component secretion and matrix formation in Staphylococcus aureus assessed as induction of bacterial aggregation at 1 uM by scanning electron microscopy; assay type: functional, organism-based

Work on `CN[C@H](CC(C)C)C(=O)N[C@H]1C(=O)N[C@@H](CC(N)=O)C(=O)N[C@H]2C(=O)N[C@H]3C(=O)N[C@H](C(=O)N[C@H](C(=O)O)c4cc(O)cc(O)c4-c4cc3ccc4O)[C@H](O)c3ccc(c(Cl)c3)Oc3cc2cc(c3O[C@@H]2O[C@H](CO)[C@@H](O)[C@H](O)[C@H]2O[C@H]2C[C@](C)(N)[C@H](O)[C@H](C)O2)Oc2ccc(cc2Cl)[C@H]1O` [VANCOMYCIN] yielded an MIC [1] greater than 5000 µM, an MIC [2] of 1.4 µM (≈ 2.03 µg/mL) and an MIC [3] of 0.7 µM (≈ 1.01 µg/mL). It also gave an MIC [4] greater than 5000 µM.

`CC(C)[C@H]1CC[C@H](C)C[C@@H]1OP(=S)(S)O[C@H]1C[C@@H](C)CC[C@@H]1C(C)C.CN1CCC[C@H]1c1cccnc1` showed an MIC [1] of 320 µM, an MIC [2] of 20 µM and an MIC [3] of 20 µM. The MIC [4] was 320 µM.

For `CC(C)[C@@H]1CC[C@@H](C)C[C@H]1OP(=S)(S)O[C@@H]1C[C@H](C)CC[C@H]1C(C)C.CN1CCC[C@H]1c1cccnc1`, the Activity [5] was “Active”, the Activity [6] was “Active” and the Activity [7] was “Active”. The Activity [8] was “Active”.

`CC(C)[C@H]1CC[C@H](C)C[C@@H]1OP(=S)(S)O[C@H]1C[C@@H](C)CC[C@@H]1C(C)C.Cc1ncc(CO)c(CO)c1O` gave an MIC [1] of 320 µM, an MIC [2] of 40 µM and an MIC [3] of 10 µM. The MIC [4] was 320 µM.

For `CC1(C)[C@H]2CC[C@]1(C)[C@H](OP(=S)(S)O[C@@H]1C[C@@H]3CC[C@@]1(C)C3(C)C)C2`, the MIC [1] was 6210 µM (≈ 2500 µg/mL), the MIC [2] was 6210 µM (≈ 2500 µg/mL) and the MIC [3] was 6210 µM (≈ 2500 µg/mL). For the same molecule, the MIC [4] was 6210 µM (≈ 2500 µg/mL).

`Cc1ccc(C(C)C)c(OP(=S)(S)Oc2cc(C)ccc2C(C)C)c1.Cc1ncc(CO)c(CO)c1O` gave an MIC [1] of 530 µM, an MIC [2] of 530 µM and an MIC [3] of 530 µM. For the same molecule, the MIC [4] was 530 µM.

With `C[C@@H]1[C@@H](OP(=S)(S)O[C@H]2C[C@H]3C[C@@H]([C@@H]2C)C3(C)C)C[C@H]2C[C@@H]1C2(C)C` the MIC [1] was 1560 µM (≈ 628 µg/mL), the MIC [2] was 390 µM (≈ 157 µg/mL) and the MIC [3] was 190 µM (≈ 76.5 µg/mL). The MIC [4] was 3110 µM (≈ 1250 µg/mL).

Work on `CC1(C)[C@H]2CC[C@]1(C)[C@H](OP(=S)(S)O[C@@H]1C[C@@H]3CC[C@@]1(C)C3(C)C)C2.CN1CCC[C@H]1c1cccnc1` yielded an MIC [1] of 320 µM, an MIC [2] of 20 µM and an MIC [3] of 20 µM. For the same molecule, the MIC [4] was 320 µM.

Molecule `CC(C)[C@@H]1CC[C@@H](C)C[C@H]1OP(=S)(S)O[C@@H]1C[C@H](C)CC[C@H]1C(C)C.Cc1ncc(CO)c(CO)c1O` [listing 1 of 2 here] has an Activity [9] of 108.9 nm, a Ratio [10] of 2 and an MIC [1] of 320 µM. For the same molecule, the Activity [11] was “Toxic”, the MIC [12] was 323 µM and the “fold change (FC)” value [13] was 1.2. The Activity [14] was “Active”, the MIC [15] was 323 to 647 µM and the Ratio [16] was 2. For the same molecule, the “fold change (FC)” value [17] was 1.2, the MIC [18] was 323 µM and the MIC [2] was 20 µM. The MIC [3] was 10 µM, the MIC [19] was 20 µM and the MIC [20] was 323 µM. The MIC [4] was 320 µM, the MIC [21] was 323 µM and the IC50 [22] was 48.6 µM. The MBC [23] was 320 µM, the MIC [24] was 20 µM and the IC50 [25] was 92.2 µM. The MIC [26] was 323 µM, the MBC [27] was 40 µM and the MBC [28] was 640 µM. It also gave a Ratio [29] of 2, an MIC [30] of 323 µM and an MIC [31] of 20 µM.

For `CC1(C)[C@H]2CC[C@](C)(C2)[C@H]1OP(=S)(S)O[C@H]1C(C)(C)[C@H]2CC[C@]1(C)C2`, the MIC [1] was 1940 µM (≈ 781 µg/mL), the MIC [2] was 240 µM (≈ 96.6 µg/mL) and the MIC [3] was 240 µM (≈ 96.6 µg/mL). For the same molecule, the MIC [4] was 1940 µM (≈ 781 µg/mL).

In the case of `CC(C)[C@@H]1CC[C@@H](C)C[C@H]1OP(=S)(S)O[C@@H]1C[C@H](C)CC[C@H]1C(C)C.Cc1ncc(CO)c(CO)c1O` [listing 2 of 2 here], the Activity [32] is reported as “Active”, the Activity [33] is reported as “Active” and the Activity [34] is reported as “Active”. For the same molecule, the Activity [35] was “Active”.
